Assay results: ChEMBL document CHEMBL1159361, “(Z)-sarcodictyin A, a new highly cytotoxic diterpenoid from the soft coral Bellonella albiflora” (J Nat Prod, 2003)
≈ marks a conversion by molar mass, not a printed value.

The compounds below were run on HeLa (assay: Cytotoxicity against human HeLa cells).
Format: functional, cell-based

SMILES | IC50 [µg/mL]
COC(=O)/C1=C/[C@@H]2[C@@H](C(C)C)CC=C(C)[C@@H]2C[C@H](OC(=O)/C=C\c2cn(C)cn2)[C@]2(C)C=C[C@@]1(O)O2 | 0.09 (≈ 0.181 µM)
CO[C@]12C=C[C@](C)(O1)[C@@H](OC(=O)/C=C\c1cn(C)cn1)C[C@H]1C(C)=CC[C@H](C(C)C)[C@H]1/C=C\2CO[C@@H]1OC[C@@H](O)[C@@H](O)[C@@H]1OC(C)=O | 0.017 (≈ 0.0259 µM)
CO[C@]12C=C[C@](C)(O1)[C@@H](OC(=O)/C=C/c1cn(C)cn1)C[C@H]1C(C)=CC[C@H](C(C)C)[C@H]1/C=C\2CO [ELEUTHEROBIN AGLYCON] | 0.09 (≈ 0.186 µM)
CO[C@]12C=C[C@](C)(O1)[C@@H](OC(=O)/C=C/c1cn(C)cn1)C[C@H]1C(C)=CC[C@H](C(C)C)[C@H]1/C=C\2CO[C@@H]1OC[C@@H](O)[C@@H](O)[C@@H]1OC(C)=O [ELEUTHEROBIN] | 0.017 (≈ 0.0259 µM)
CCOC(=O)/C1=C/[C@@H]2[C@@H](C(C)C)CC=C(C)[C@@H]2C[C@H](OC(=O)/C=C/c2cn(C)cn2)[C@]2(C)C=C[C@@]1(O)O2 [SARCODICTYIN B] | 0.09 (≈ 0.176 µM)
